Each compound was assayed against T1, Aromatase [1-48] (Homo sapiens, UniProt P11511) (assay: Biological Assay).
T1 construct: 1-48
T1 sequence (P11511 whole entry): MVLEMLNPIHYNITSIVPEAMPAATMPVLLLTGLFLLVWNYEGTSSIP
Experimental: The inhibitory activities of the compounds toward aromatase were determined in vitro using human placental microsomes and [1,2,6,7-3H]-androstenedione.

Compound	IC50 [nM]
Oc1ccc(C2CC(n3ccnc3)c3ccc(O)cc3O2)cc1 (stereo not drawn) [2,4-Trans-4',7-dihydroxy-4-imidazolyl-7-methoxyflavan, 3e]	77
COc1ccc2c(c1)OC(c1ccc(Cl)cc1)CC2n1ccnc1 (trans isomer) [2,4-Trans-4'-chloro-4-imidazolyl-7-methoxyflavan, 3b]	200
COc1ccc2c(c1)OC(c1cccc(O)c1)CC2n1ccnc1 (stereo not drawn) [2,4-Trans-3'-hydroxy-4-imidazolyl-7-methoxyflavan, 3a]	130

The remaining compounds from weak to strong by IC50, led by results:

IC50 [nM]	Compound
133	COc1ccc2c(c1)OC(c1ccc(C#N)cc1)CC2n1ccnc1 (stereo not drawn) [2,4-Trans-4'-cyano-4-imidazolyl-7-methoxyflavan, 3c]
40	COc1ccc2c(c1)OC(c1ccc(O)cc1)CC2n1ccnc1 (stereo not drawn) [2,4-Trans-4'-hydroxy-4-imidazolyl-7-methoxyflavan, 3d]

Reference: BindingDB's records for doi:10.1016/j.bioorg.2004.06.008 (BiomolÉCules Et Cibles Cellulaires Tumorales, 2004)
